Data published in patent US6815414B2, “Pharmaceutical compositions for the treatment of helicobacter pylori-associated disorders” (Vecta Ltd., priority 1998, dated 2004).
“Also recorded” adds a separate entry of the source. No end group written: not given here.

Tests used:
H. pylori [1] = test: H. pylori growth kinetics in liquid media (optical density); assay type: cell-based, Helicobacter pylori; conditions: peptide added to liquid media at increasing concentrations, microaerophilic, up to 48 h
H. pylori [2] = test: Cold inhibition assay: competition on 125I-labeled gastrin uptake by H. pylori; assay type: binding, Helicobacter pylori; conditions: 500 nmol/l 125I-labeled gastrin, increasing concentrations of unlabeled peptide, 45 min, 37° C.
Experimental: Bacteria were incubated in the presence of 500 nmo/l ^125I-labeled gastrin and increasing concentrations of either unlabeled gastrin (G), CCK-8 (CCK), pentagastrin (Pen), somatostatin (Som) or EGF for 45 min. Bacteria were washed and radioactivity remaining in bacterial pellets was determined. One experiment representative of three.
For the cold inhibition assay, bacterial pellets were resuspended in 200 μl Brucella broth containing 500 nmol/l ^125I-labeled gastrin. Unlabeled gastrin in increasing concentrations (1250-5000 nmol/l) was added concurrently. Bacteria were incubated for 45 minutes at 37° C., after which they were extensively washed with PBS. Incorporation of ^125I-labeled gastrin was determined using a gamma counter. As controls, bacteria were incubated with ^125I-labeled gastrin (500 nmol/l) in the presence of CCK-8, pentagastrin, somatostatin or EGF at the indicated concentrations.

[3] = system: control bacteria (E. coli, S. pneumonia, C. jejuni); test: Radioactive gastrin uptake by control bacteria; assay type: cell-based; conditions: 500 nmol/l, 45 min, 4° C. or 37° C.; autoradiography
Experimental: (§1) H. pylori (H.P.), E. coli (E.C.), S. pneumonia (S.P.) and C. jejuni (C.J.) bacteria were incubated for 45 minutes with ^125I-labeled gastrin. Incubation was at 4° C. or 37° C. Following initial incubation, proteinase K (P.K) was added for 30 minutes, after which bacteria were washed and blotted. One experiment representative of two.
(§2) To assess labeled gastrin uptake, bacterial pellets were resuspended in 200 μl Brucella broth containing 500 nmol/l ^125I-labeled gastrin (IncStar Pharmatrade). Incubation was at either 4° C. or 37° C. for 45 minutes. Bacteria were washed three times in PBS, resuspended and incubated for 30 minutes in Brucella broth containing proteinase K (Promega) at a concentration of 25 ng/ml. Subsequently, bacteria were washed, resuspended in 100 μl PBS, out of which 10 μl were blotted on nitrocellulose filters and autoradiography performed for 7 days. Incorporated ^125I was quantitated using a gamma counter.

H. pylori [4] = test: Radioactive gastrin uptake by H. pylori; assay type: cell-based, Helicobacter pylori
Experimental: as §1, §2

Row | Molecule | effect on H. pylori growth (growth curve, OD) (H. pylori [1]) | inhibition of labeled gastrin uptake by H. pylori (H. pylori [2]) | labeling of control bacteria by labeled gastrin [3] | uptake (incorporation) of labeled gastrin by H. pylori (H. pylori [4]; 500 nmol/l, 45 min, 37° C. (not at 4° C.), autoradiography) | radioactive counts incorporated by H. pylori before proteinase K incubation (H. pylori [4]; before proteinase K incubation) | radioactive counts incorporated by H. pylori following incubation with proteinase K (H. pylori [4]; following 30 min incubation with proteinase K)
1 | C[C@H](N)C(=O)NCC(=O)N[C@H]1CSSC[C@@H](C(=O)O)NC(=O)[C@H](CO)NC(=O)[C@H]([C@@H](C)O)NC(=O)[C@H](Cc2ccccc2)NC(=O)[C@H]([C@@H](C)O)NC(=O)[C@H](CCCCN)NC(=O)[C@H](Cc2c[nH]c3ccccc23)NC(=O)[C@H](Cc2ccccc2)NC(=O)[C@H](Cc2ccccc2)NC(=O)[C@H](CC(N)=O)NC(=O)[C@H](CCCCN)NC1=O [somatostatin, somatostatin 14] | none of the peptides had an effect | no inhibition |  |  |  | 
2 | ^125I-labeled gastrin: 125I-labeled gastrin (IncStar Pharmatrade) used as radioligand for uptake |  |  | no labeling | only H. pylori incubated at 37 °C incorporated | 311 CPM | 385 CPM
3 | cholecystokinin (CCK)-8 (fragment 26-33) (DYMGWMDF-NH2; ends and bridges not checked; UniProt P06307 96-103, looked up) [CCK-8, gastrin/CCKB receptor agonist peptide comprising Trp-Met-Asp-PheNH2] | did not stimulate bacterial growth; also recorded: none of the peptides had an effect | competed with gastrin on the binding to H. pylori; also recorded: inhibited labeled gastrin uptake in a dose-dependent manner |  |  |  | 
4 | epidermal growth factor (EGF) (NSDSECPLSHDGYCLHDGVCMYIEALDKYACNCVVGYIGERCQYRDLKWWELR; Epidermal growth factor; UniProt P01133 971-1023, looked up) [growth factor peptide found within the gastric lumen, control peptide] | none of the peptides had an effect | no inhibition |  |  |  | 
